Assay results: patent US5620892A, “Strain of Saccharomyces cerevisiae expressing the gene encoding potassium transporter minK” (priority 1993, dated 1997)

Tests used:
HminK [1] = target: T1, HminK (Homo sapiens, UniProt P15382, S38G); experiment: Inhibition of growth in agar, HminK strain; assay type: cell-based; design: key: + indicates compound produced a zone on inhibition; details: cultures grown in inducing medium (2% galactose) embedded in agar; scored after 48-hour incubation at 30° C.
T1 construct: mRNA in Xenopus oocytes (A3)
Protocol: (§1) Cultures of strains containing the pGAL::HminK plasmid or the pGAL::TRK1 plasmid were grown in inducing media (2% galactose) at 30° C. with vigorous aeration. Inhibitors were added to cultures over a range of concentrations. Samples were removed at various intervals and the optical density at 600 nm was determined. Growth measurements were normalized to values obtained for growth in the absence of drug and are plotted as Relative Growth versus concentration (FIG. 6). Similar cultures grown in inducing medium were embedded in agar and assessed for growth in presence of the compounds listed in Table 1. Plates were scored after a 48-hour incubation at 30° C.; "+" denotes growth inhibition.

IKs = details: slow component of the delayed rectifier; literature; cited from earlier work
HminK [2] = target: T1, HminK; experiment: Challenge of the pGAL::HminK-transformed double mutant on agar plates at 100 mM and 0.1 mM KCl; assay type: cell-based; details: clofilium 100 μM; 100 mM and 0.1 mM potassium chloride
Protocol: (§2) In another experiment, the double mutant was transformed with pGAL vector including either TRK1 or HminK as described above. The transformed strains were then separately challenged with clofilium (100 μM) and dofetilide […] at 100 mM and 0.1 mM of potassium chloride.
(§3) Cultures of K^+ transporter mutant strains containing either pYES2 vector, pGAL::TRK1 or pGAL::HminK plasmids were grown in inducing media (2% galactose) at 30° C. with vigorous aeration. A. Serial dilutions of each culture were spotted onto agar plates containing either 100 mM or 0.1 mM. KCl. B. Serial dilutions of strains containing pGAL::TRK1 or pGAL::HminK plasmids were spotted onto agar plates containing 100 μM clofilium or 1 μM dofetilide at both KCl concentrations. All plates were incubated at 30° C. and scored after 2 days.

minK = details: literature and personal communication; cited from earlier work
HminK [3] = target: T1, HminK; experiment: Potassium ion currents of HminK mRNA transcripts expressed in Xenopus oocytes; assay type: cell-based; details: Xenopus oocytes expressing the HminK transcripts; clofilium 50 μM
Protocol: For further verification, mRNA transcripts were expressed in Xenopus oocytes. The expression products caused potassium ion currents that are blocked by clofilium (50 μM) and kinetically indistinguishable from HminK currents reported in the literature. […] Ben Efraim et al., Biochemistry 32: 2371-2377 (1993).

IKr = details: rapid, rectifying component of the delayed rectifier; literature; cited from earlier work
TRK1 [4] = target: T2, TRK1 (Saccharomyces cerevisiae, UniProt P12685); experiment: Challenge of the pGAL::TRK1-transformed double mutant on agar plates at 100 mM and 0.1 mM KCl; assay type: cell-based; details: clofilium 100 μM; 100 mM and 0.1 mM potassium chloride
T2 sequence (P12685 1-1235): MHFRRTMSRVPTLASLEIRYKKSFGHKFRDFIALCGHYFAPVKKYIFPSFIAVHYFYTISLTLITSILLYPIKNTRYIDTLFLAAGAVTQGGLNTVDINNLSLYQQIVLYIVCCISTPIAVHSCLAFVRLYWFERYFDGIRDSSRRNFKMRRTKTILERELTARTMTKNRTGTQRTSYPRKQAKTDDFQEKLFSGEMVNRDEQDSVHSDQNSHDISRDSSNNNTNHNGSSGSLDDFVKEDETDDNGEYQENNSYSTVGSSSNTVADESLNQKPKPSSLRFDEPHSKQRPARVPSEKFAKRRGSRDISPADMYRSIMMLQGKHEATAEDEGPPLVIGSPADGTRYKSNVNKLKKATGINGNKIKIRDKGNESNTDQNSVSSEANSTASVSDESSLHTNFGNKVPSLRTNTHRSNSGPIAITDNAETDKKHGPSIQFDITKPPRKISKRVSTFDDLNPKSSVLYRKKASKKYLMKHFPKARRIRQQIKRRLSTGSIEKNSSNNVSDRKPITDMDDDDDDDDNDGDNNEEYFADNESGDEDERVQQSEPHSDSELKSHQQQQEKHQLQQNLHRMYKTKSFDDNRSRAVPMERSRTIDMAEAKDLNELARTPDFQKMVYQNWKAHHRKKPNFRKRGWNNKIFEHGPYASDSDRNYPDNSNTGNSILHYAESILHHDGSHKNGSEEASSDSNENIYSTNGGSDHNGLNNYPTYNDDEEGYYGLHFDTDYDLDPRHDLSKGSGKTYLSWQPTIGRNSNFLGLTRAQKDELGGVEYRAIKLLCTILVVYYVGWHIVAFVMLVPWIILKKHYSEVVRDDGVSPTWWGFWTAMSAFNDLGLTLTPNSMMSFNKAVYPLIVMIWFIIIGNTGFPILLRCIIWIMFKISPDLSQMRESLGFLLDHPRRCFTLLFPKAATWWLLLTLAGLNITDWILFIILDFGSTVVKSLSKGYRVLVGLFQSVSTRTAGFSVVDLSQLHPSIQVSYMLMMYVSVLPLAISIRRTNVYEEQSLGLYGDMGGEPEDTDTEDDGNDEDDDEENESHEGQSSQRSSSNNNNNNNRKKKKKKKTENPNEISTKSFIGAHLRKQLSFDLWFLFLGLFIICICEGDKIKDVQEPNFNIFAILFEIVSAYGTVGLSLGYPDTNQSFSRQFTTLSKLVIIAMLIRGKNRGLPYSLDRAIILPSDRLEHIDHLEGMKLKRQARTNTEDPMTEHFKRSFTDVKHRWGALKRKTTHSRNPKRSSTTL
Protocol: as §2, §3

TRK1 [5] = target: T2, TRK1; experiment: Inhibition of growth in agar, TRK1 strain; assay type: cell-based; design: key: + indicates compound produced a zone on inhibition; details: cultures grown in inducing medium (2% galactose) embedded in agar; scored after 48-hour incubation at 30° C.
Protocol: as §1

SMILES | Inhibition in agar HminK strain (HminK [1]) | Block of IKs (IKs) | Block of potassium uptake in the HminK strain (HminK [2]) | Blockage of minK expressed in Xenopus oocytes (minK) | Block of potassium ion currents (HminK [3]) | Block of IKr (IKr) | Block of potassium uptake in the TRK1 strain (TRK1 [4]) | Inhibition in agar TRK1 strain (TRK1 [5])
CC[N+](CC)(CC)CC [TEA Cl] | + | – | – | – | – | – | – | –
CCCCCCC[N+](CC)(CC)CCCCc1ccc(Cl)cc1 [clofilium] | + | blocked | blocked potassium uptake in the HminK strain | blockage | blocked | blocked | not in the TRK1 strain | –
CC(C)NCC(O)c1ccc(NS(C)(=O)=O)cc1 (stereo not drawn) [d-sotalol] | – | not | – | – | – | blocked | – | –
CN(CCOc1ccc(NS(C)(=O)=O)cc1)CCc1ccc(NS(C)(=O)=O)cc1 [dofetilide] | – | not | – | – | – | blocked | – | –
C=C[C@H]1C[N@@]2CC[C@H]1C[C@@H]2[C@@H](O)c1ccnc2ccc(OC)cc12 [quinidine] | + | – | – | – | – | – | – | +
